According to patent US8278032B2, “Transporter protein in mammal and utilization of the same” (priority 2005, dated 2012):
Where two headings read alike, the source gives them in different places.

What was measured:
[1] = biological target: T1, hMATE1 (Homo sapiens, UniProt Q96FL8); experiment: Inhibition of RI-labeled TEA uptake in HEK293 cells expressing hMATE1; conditions: for TEA uptake activity percent taking the level with addition of no compound as 100% (% ± S.D.): 50 μM RI-labeled TEA, pH 8.0, HEK293 cells expressing hMATE1; for Inhibition of TEA uptake activity (in words, summary of Table 1): MATE1 expressing HEK293 cells, 50 μM TEA, pH 8.0; for Effect on TEA uptake activity (in words): valinomycin 5 μM with 65 mM potassium chloride, nigericin 5 μM with potassium chloride, SF6847 10 μM
T1 sequence (Q96FL8 1-570): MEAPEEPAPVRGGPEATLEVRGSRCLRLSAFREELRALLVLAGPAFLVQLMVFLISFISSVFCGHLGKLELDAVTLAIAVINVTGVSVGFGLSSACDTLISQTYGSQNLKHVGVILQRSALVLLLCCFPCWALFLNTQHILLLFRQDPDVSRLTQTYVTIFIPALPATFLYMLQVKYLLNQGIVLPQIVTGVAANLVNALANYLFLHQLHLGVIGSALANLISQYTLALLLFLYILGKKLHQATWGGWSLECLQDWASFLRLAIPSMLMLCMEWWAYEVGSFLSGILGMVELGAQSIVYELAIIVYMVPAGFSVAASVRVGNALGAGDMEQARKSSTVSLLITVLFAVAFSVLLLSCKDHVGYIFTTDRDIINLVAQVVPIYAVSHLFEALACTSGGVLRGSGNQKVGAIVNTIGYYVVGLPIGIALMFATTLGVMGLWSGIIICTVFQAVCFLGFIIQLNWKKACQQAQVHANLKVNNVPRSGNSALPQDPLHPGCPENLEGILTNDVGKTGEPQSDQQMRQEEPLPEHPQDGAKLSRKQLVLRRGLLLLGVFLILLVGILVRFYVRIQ

[2] = biological target: T2, mMATE1 (Mus musculus, UniProt Q8K0H1); experiment: Inhibition of RI-labeled TEA uptake in HEK293 cells expressing mMATE1; format: cell-based;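 note: transfected HEK293 cells held 5 min at 37 °C before tracer addition, uptake read as radioactivity retained on a 0.45-µm membrane filter, mean ± SD of three to nine experiments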
T2 construct: expressed in transfected cells; host or cells: HEK293
T2 sequence (Q8K0H1 with tags, fused parts or gaps): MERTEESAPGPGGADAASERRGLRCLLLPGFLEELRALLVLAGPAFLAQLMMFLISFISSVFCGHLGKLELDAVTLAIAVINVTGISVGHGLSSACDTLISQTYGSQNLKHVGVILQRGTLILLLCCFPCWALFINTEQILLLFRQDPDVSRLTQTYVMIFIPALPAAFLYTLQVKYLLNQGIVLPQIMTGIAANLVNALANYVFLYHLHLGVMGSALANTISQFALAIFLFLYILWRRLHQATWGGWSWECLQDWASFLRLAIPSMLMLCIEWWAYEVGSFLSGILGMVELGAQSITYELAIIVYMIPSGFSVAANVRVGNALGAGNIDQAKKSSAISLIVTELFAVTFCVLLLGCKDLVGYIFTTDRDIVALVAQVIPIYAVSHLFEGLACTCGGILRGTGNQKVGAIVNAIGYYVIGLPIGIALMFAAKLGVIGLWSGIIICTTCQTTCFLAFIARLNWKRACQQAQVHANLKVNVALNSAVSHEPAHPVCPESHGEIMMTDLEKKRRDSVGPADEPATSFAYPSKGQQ

[3] = HEK293 cells expressing human MATE1, FIG. 9(e)

Cc1ncc(C[n+]2csc(CCO)c2C)c(N)n1 [Thiamine]
TEA uptake activity percent taking the level with addition of no compound as 100% (% ± S.D.) ([1]; compound 0.1 mM): 55.7 ± 7.0% | TEA uptake activity percent taking the level with addition of no compound as 100% (% ± S.D.) ([1]; compound 1 mM): 31.1 ± 3.9%

CC(O)C(=O)O (stereo not shown) [Lactate]
TEA uptake activity percent taking the level with addition of no compound as 100% (% ± S.D.) ([2]; compound 10 mM, 50 μM RI-labeled TEA, pH 8.0, HEK293 cells expressing mMATE1): 93.9 ± 3.2% | TEA uptake activity percent taking the level with addition of no compound as 100% (% ± S.D.) ([1]; compound 10 mM): 103.8 ± 8.8%

CC(C)(c1ccc(O)cc1)c1ccc(O)cc1 [Bisphenol A]
TEA uptake activity percent taking the level with addition of no compound as 100% (% ± S.D.) ([1]; compound 0.01 mM): 113.9 ± 2.1%

COc1ccc2[nH]cc(CCNC(C)=O)c2c1 [Melatonin]
remaining activity at 100 µM ([2]; HEK293, pH 8, read-out: TEA uptake activity percent taking the level with addition of no compound as 100% (% ± S.D.)): 51.4 ± 0.8% | Inhibition of TEA uptake activity (in words, summary of Table 1) [1]: inhibited | TEA uptake activity percent taking the level with addition of no compound as 100% (% ± S.D.) ([1]; compound 0.1 mM): 85.0 ± 4.0%

N=C(N)N [Guanidine]
remaining activity at 500 µM ([2]; compound 0.5 mM, 50 μM RI-labeled TEA, pH 8.0, HEK293 cells expressing mMATE1, read-out: TEA uptake activity percent taking the level with addition of no compound as 100% (% ± S.D.)): 96 ± 8.5% | TEA uptake activity percent taking the level with addition of no compound as 100% (% ± S.D.) ([1]; compound 0.5 mM): 93.4 ± 7.6%

CNC(=O)c1cccnc1 [NMN, N-methylnicotinamide]
remaining activity at 1000 µM ([2]; compound 1 mM, 50 μM RI-labeled TEA, pH 8.0, HEK293 cells expressing mMATE1, read-out: TEA uptake activity percent taking the level with addition of no compound as 100% (% ± S.D.)): 115 ± 8.9% | TEA uptake activity percent taking the level with addition of no compound as 100% (% ± S.D.) ([1]; compound 1 mM): 93.5 ± 1.9%

CC/C(=C(/CC)c1ccc(O)cc1)c1ccc(O)cc1 [Diethylstilbestrol]
TEA uptake activity percent taking the level with addition of no compound as 100% (% ± S.D.) ([1]; compound 0.1 mM): 94.9 ± 7.8%

CCN(CC)CCCC(C)Nc1c2ccc(Cl)cc2nc2ccc(OC)cc12 (stereo not shown) [Quinacrine]
TEA uptake activity percent taking the level with addition of no compound as 100% (% ± S.D.) ([1]; compound 0.01 mM): 41.6 ± 8.2%

CC(=O)[C@H]1CC[C@H]2[C@@H]3CCC4=CC(=O)CC[C@]4(C)[C@H]3CC[C@]12C [Progesterone]
remaining activity at 100 µM ([2]; compound 0.1 mM, 50 μM RI-labeled TEA, pH 8.0, HEK293 cells expressing mMATE1, read-out: TEA uptake activity percent taking the level with addition of no compound as 100% (% ± S.D.)): 9.3 ± 1.6% | Inhibition of TEA uptake activity (in words, summary of Table 1) [1]: inhibited | TEA uptake activity percent taking the level with addition of no compound as 100% (% ± S.D.) ([1]; compound 0.1 mM): 31.7 ± 5.6%

C[C@@H]1O[C@@H](O[C@H]2C[C@@H](O)[C@]3(CO)[C@H]4[C@H](O)C[C@]5(C)[C@@H](C6=CC(=O)OC6)CC[C@]5(O)[C@@H]4CC[C@]3(O)C2)[C@H](O)[C@H](O)[C@H]1O [Ouabain]
TEA uptake activity percent taking the level with addition of no compound as 100% (% ± S.D.) ([1]; compound 0.01 mM): 115.9 ± 6.6%

N.N.[Cl][Pt][Cl] [Cisplatin]
TEA uptake activity percent taking the level with addition of no compound as 100% (% ± S.D.) ([1]; compound 1 mM): 35.6 ± 6.0%

CCc1nc(N)nc(N)c1-c1ccc(Cl)cc1 [Pyrimethamine]
TEA uptake activity percent taking the level with addition of no compound as 100% (% ± S.D.) ([1]; compound 0.00001 mM): 45.2 ± 3.5% | TEA uptake activity percent taking the level with addition of no compound as 100% (% ± S.D.) ([1]; compound 0.0001 mM): 19.8 ± 1.6%

N[C@@H](Cc1cc(I)c(Oc2cc(I)c(O)c(I)c2)c(I)c1)C(=O)O [Thyroxine]
TEA uptake activity percent taking the level with addition of no compound as 100% (% ± S.D.) ([1]; compound 0.1 mM): 113.0 ± 4.5%

O=C(CCCN1CC=C(n2c(=O)[nH]c3ccccc32)CC1)c1ccc(F)cc1 [Droperidol]
TEA uptake activity percent taking the level with addition of no compound as 100% (% ± S.D.) ([1]; compound 0.001 mM): 74.1 ± 14.7%

CN(C)C(=N)N=C(N)N [Metformin]
TEA uptake activity percent taking the level with addition of no compound as 100% (% ± S.D.) ([1]; compound 0.1 mM): 120.5 ± 9.4%

Catechin
TEA uptake activity percent taking the level with addition of no compound as 100% (% ± S.D.) ([1]; compound 0.1 mM): 104.0 ± 4.4%

C[C@@H]1O[C@@H](OC[C@H]2O[C@@H](Oc3c(-c4ccc(O)c(O)c4)oc4cc(O)cc(O)c4c3=O)[C@H](O)[C@@H](O)[C@@H]2O)[C@H](O)[C@H](O)[C@H]1O [Rutin]
TEA uptake activity percent taking the level with addition of no compound as 100% (% ± S.D.) ([1]; compound 0.1 mM): 71.8 ± 3.6%

CC(C)[C@@H]1NC(=O)[C@H](C)OC(=O)[C@@H](C(C)C)NC(=O)[C@@H](C(C)C)OC(=O)[C@H](C(C)C)NC(=O)[C@H](C)OC(=O)[C@@H](C(C)C)NC(=O)[C@@H](C(C)C)OC(=O)[C@H](C(C)C)NC(=O)[C@H](C)OC(=O)[C@@H](C(C)C)NC(=O)[C@@H](C(C)C)OC1=O [valinomycin]
Effect on TEA uptake activity (in words) [1, 3]: not affected

C[C@]12CC[C@@H](O)C[C@@H]1CC[C@@H]1[C@@H]2CC[C@]2(C)C(=O)CC[C@@H]12 [androsterone]
Inhibition of TEA uptake activity (in words, summary of Table 1) [1]: inhibited

NC12CC3CC(CC(C3)C1)C2 [Amantadine]
TEA uptake activity percent taking the level with addition of no compound as 100% (% ± S.D.) ([1]; compound 0.1 mM): 75.5 ± 9.8%

CC(C)NCC(O)COc1cccc2ccccc12 (stereo not shown) [Propranolol]
TEA uptake activity percent taking the level with addition of no compound as 100% (% ± S.D.) ([1]; compound 0.1 mM): 30.1 ± 3.9%

CN(C)CCCN1c2ccccc2Sc2ccc(Cl)cc21 [Chlorpromazine]
TEA uptake activity percent taking the level with addition of no compound as 100% (% ± S.D.) ([1]; compound 0.1 mM): 12.2 ± 3.6%

CN1[C@@H]2CC[C@H]1C[C@@H](OC(=O)C(CO)c1ccccc1)C2 (stereo partly shown) [Atropine]
TEA uptake activity percent taking the level with addition of no compound as 100% (% ± S.D.) ([1]; compound 0.1 mM): 74.6 ± 5.5%

CC(C)(C)c1cc(C=C(C#N)C#N)cc(C(C)(C)C)c1O [SF6847]
Effect on TEA uptake activity (in words) [1, 3]: greatly decreased

Tocopherol
TEA uptake activity percent taking the level with addition of no compound as 100% (% ± S.D.) ([1]; compound 0.1 mM): 78.8 ± 9.6%

NCCCCNCCCN [Spermidine]
TEA uptake activity percent taking the level with addition of no compound as 100% (% ± S.D.) ([1]; compound 0.05 mM): 97.0 ± 11.4%

C[C@H]1O[C@@H](O[C@H]2[C@@H](O)C[C@H](O[C@H]3[C@@H](O)C[C@H](O[C@H]4CC[C@@]5(C)[C@H](CC[C@@H]6[C@@H]5C[C@@H](O)[C@]5(C)[C@@H](C7=CC(=O)OC7)CC[C@]65O)C4)O[C@@H]3C)O[C@@H]2C)C[C@H](O)[C@@H]1O [Digoxin]
TEA uptake activity percent taking the level with addition of no compound as 100% (% ± S.D.) ([1]; compound 0.001 mM): 102.5 ± 7.3%

CC[C@@H]1C(=O)OC[C@@H]1Cc1cncn1C [Pilocarpine]
TEA uptake activity percent taking the level with addition of no compound as 100% (% ± S.D.) ([1]; compound 0.1 mM): 96.1 ± 0.4%

NCCc1c[nH]c2ccc(O)cc12 [Serotonin]
TEA uptake activity percent taking the level with addition of no compound as 100% (% ± S.D.) ([1]; compound 0.1 mM): 67.5 ± 8.0%

C[n+]1ccc(-c2cc[n+](C)cc2)cc1 [Paraquat]
TEA uptake activity percent taking the level with addition of no compound as 100% (% ± S.D.) ([1]; compound 1 mM): 57.2 ± 6.8%

CO[C@@H]1C[C@@H](C[C@H]2CC[C@H](C)[C@H]([C@@H](C)C(=O)O)O2)O[C@]2(O[C@](C)([C@H]3CC[C@@](C)([C@@H]4O[C@@H]([C@H]5O[C@@](O)(CO)[C@H](C)C[C@@H]5C)C[C@@H]4C)O3)C[C@H]2C)[C@@H]1C [nigericin]
Effect on TEA uptake activity (in words) [1, 3]: greatly decreased

para-aminobutyric acid
Inhibition of TEA uptake activity (in words, summary of Table 1) [1]: not inhibited

COc1ccc2cc3[n+](cc2c1OC)CCc1cc2c(cc1-3)OCO2 [Berberin]
TEA uptake activity percent taking the level with addition of no compound as 100% (% ± S.D.) ([1]; compound 0.001 mM): 69.2 ± 2.1% | TEA uptake activity percent taking the level with addition of no compound as 100% (% ± S.D.) ([1]; compound 0.01 mM): 20.4 ± 2.4% | TEA uptake activity percent taking the level with addition of no compound as 100% (% ± S.D.) ([1]; compound 0.1 mM): 4.2 ± 0.9%

C=C[C@H]1C[N@@]2CC[C@H]1C[C@H]2[C@H](O)c1ccnc2ccc(OC)cc12 [Quinine]
TEA uptake activity percent taking the level with addition of no compound as 100% (% ± S.D.) ([1]; compound 0.01 mM): 30.4 ± 2.8%

Cl.N [ammonium chloride]
TEA uptake activity inhibited by ([1]; HEK293 cells expressing human MATE1, FIG. 9(e), concentration not given): 60%

COC(=O)[C@H]1[C@H]2C[C@@H]3c4[nH]c5cc(OC)ccc5c4CCN3C[C@H]2C[C@@H](OC(=O)c2cc(OC)c(OC)c(OC)c2)[C@@H]1OC [Reserpine]
TEA uptake activity percent taking the level with addition of no compound as 100% (% ± S.D.) ([1]; compound 0.001 mM): 86.3 ± 3.5% | TEA uptake activity percent taking the level with addition of no compound as 100% (% ± S.D.) ([1]; compound 0.01 mM): 22.8 ± 0.9%

COc1ccc(Cc2nccc3cc(OC)c(OC)cc23)cc1OC [Papaverine]
TEA uptake activity percent taking the level with addition of no compound as 100% (% ± S.D.) ([1]; compound 0.01 mM): 26.8 ± 2.7%
